Test results: PMC6309729 (Biochemistry, 2011)

Legend:
Format in all cases: biochemical
cpSRP54•cpFtsY complex = target: T1, cpSRP54•cpFtsY complex (Arabidopsis thaliana, UniProt O80842+P37107); test: reciprocally stimulated multiple-turnover GTPase assay; conditions: 25 °C, pH 7.5, 100 μM GTP, 100 nM cpSRP54, varied cpFtsY
T1 sequence (P37107 76-564): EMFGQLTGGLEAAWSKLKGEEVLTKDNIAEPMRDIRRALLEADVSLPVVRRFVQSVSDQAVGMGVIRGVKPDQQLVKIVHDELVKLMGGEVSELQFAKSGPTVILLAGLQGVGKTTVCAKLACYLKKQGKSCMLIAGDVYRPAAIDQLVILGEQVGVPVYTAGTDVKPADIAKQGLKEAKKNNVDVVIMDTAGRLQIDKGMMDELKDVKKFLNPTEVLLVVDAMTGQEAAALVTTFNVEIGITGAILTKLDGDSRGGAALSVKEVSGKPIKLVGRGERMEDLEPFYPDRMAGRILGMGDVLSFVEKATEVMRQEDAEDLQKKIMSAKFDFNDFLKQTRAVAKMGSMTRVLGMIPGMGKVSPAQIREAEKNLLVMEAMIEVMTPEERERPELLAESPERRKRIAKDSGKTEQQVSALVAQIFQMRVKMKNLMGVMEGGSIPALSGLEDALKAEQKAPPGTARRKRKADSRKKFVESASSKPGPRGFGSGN
T1 sequence (O80842 41-366): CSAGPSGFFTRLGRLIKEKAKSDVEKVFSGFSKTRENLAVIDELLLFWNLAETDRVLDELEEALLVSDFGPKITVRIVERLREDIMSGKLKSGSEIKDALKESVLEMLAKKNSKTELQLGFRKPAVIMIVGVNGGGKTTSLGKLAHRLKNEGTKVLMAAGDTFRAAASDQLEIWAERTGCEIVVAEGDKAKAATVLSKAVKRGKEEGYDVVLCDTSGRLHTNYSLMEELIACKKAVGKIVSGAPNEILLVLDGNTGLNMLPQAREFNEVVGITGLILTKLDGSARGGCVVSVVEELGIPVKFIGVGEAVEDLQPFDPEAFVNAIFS

cpSRP54 = target: T2, cpSRP54 (Arabidopsis thaliana, UniProt P37107); test: basal GTP binding / GTPase assay; conditions: 25 °C, pH 7.5, Mg(OAc)2; cpSRP54 alone
T2 sequence (P37107 76-564): T1 sequence (P37107 76-564)

cpFtsY = target: T3, cpFtsY (Arabidopsis thaliana, UniProt O80842); test: basal GTP binding / GTPase assay; conditions: 25 °C, pH 7.5, Mg(OAc)2; cpFtsY alone
T3 sequence (O80842 41-366): T1 sequence (O80842 41-366)

Nc1nc2c(ncn2[C@@H]2O[C@H](COP(=O)(O)OP(=O)(O)OP(=O)(O)O)[C@@H](O)[C@H]2O)c(=O)[nH]1 [GTP]
reciprocally stimulated multiple-turnover GTPase assay (cpSRP54•cpFtsY complex): reciprocally stimulated GTPase reaction between cpFtsY and cpSRP
basal GTP binding / GTPase assay (cpSRP54): basal GTP binding and hydrolysis activity (Tables S3 and S4 of Supporting Information, respectively)
basal GTP binding / GTPase assay (cpFtsY): basal GTP binding and hydrolysis activity (Tables S3 and S4 of Supporting Information, respectively)
